# Tested on: IL-6
# Experiment: LPS-induced IL-6 secretion in primary human monocyte-derived macrophages (ELISA)
# Type: cell-based
# Settings: for IL-6 Measurements Mean: LPS 0.15 ng/mL, baseline subtracted; for LPS-induced IL-6 secretion: macrophages, 0.15 ng/mL LPS
# Experimental: Unpurified buffy coats (Research Blood Components) were carefully poured into 50 mL centrifuge tubes and diluted with room temperature Dulbecco's Phosphate Buffered Saline (dPBS) with Calcium and Magnesium (Gibco). Diluted buffy coats were further divided into four total 50 mL centrifuge tubes at 20 mL per tube. Lymphocyte Separation Medium (Corning) was carefully pipetted to the bottom of each centrifuge tube. Mixtures were centrifuged at 850× g for 32 minutes at 20° C. with 0 deceleration and acceleration.
# The PBMC layer was separated from other components after centrifugation and added to new 50 mL centrifuge tube containing 25 mL dPBS. Total volume was brought up to 50 mL with dPBS and centrifuged at 600×g for 10 minutes at 20° C. with acceleration of 9, deceleration of 5. Supernatant was carefully removed from cell pellets. The cell pellets were resuspended using 10 mL dPBS. Total volume was then brought up to 50 mL using dPBS and centrifuged at 450×g for 5 min at 20° C. with acceleration of 9, deceleration of 9. The supernatant removal and cell pellet resuspension was repeated again.
# The supernatant was then carefully removed from cell pellets. Cell pellets were resuspended in 10 mL dPBS without calcium or magnesium and filtered through a 70 uM cell strainer. The total PBMC number was determined using a Cellometer K2 automated cell counter. A total of 5E6 cells were saved for flow cytometric analysis. Remaining cells were centrifuged at 490×g for 5 minutes at 20° C. with acceleration of 9, deceleration of 9.
# CD14+ cells were selected using EasySep™ Human CD14 Positive Selection Kit II ([…] Technologies). Cells were resuspended in cold EasySep™ Buffer ([…] Technologies) at 1×10^8 cells/mL. A total of 100 uL/mL EasySep™ Human CD14 Positive Selection Cocktail II was added to the cell suspension, mixed, and incubated at room temperature for 10 minutes. A total of 100 uL/mL RapidSpheres were added to the mixture and incubated at room temperature for 3 minutes after mixing, then RoboSep buffer was added to bring up the total volume to 10 mL. The mixture in a 15 mL tube was placed in magnet and incubated at room temperature for 3 minutes. Supernatant was discarded and 10 mL fresh EasySep™ buffer was added to 15 mL tube. The addition of RoboSep buffer, mixing, and discarding of supernatant was repeated two more times.
# Negative and positive fractions were centrifuged at 490×g for 5 minutes at 20° C. with acceleration of 9, deceleration of 9, and resuspended in DMEM (Gibco) and 10% Heat Inactivated Fetal Bovine Serum (Atlanta Bio) and Penicillin/Streptomycin. Cells were counted and centrifuged again at 490× g for 5 minutes at 20° C. with acceleration of 9, deceleration of 9. After centrifugation, cell were resuspended in DMEM (Gibco) and 10% Heat Inactivated Fetal Bovine Serum (Atlanta Bio) and Penicillin/Streptomycin containing 500 U/mL […] and plated at 1-2×10^6 cells/mL on 10 cm tissue culture plates. Cells were kept in 37° C., 5% CO2 in between feedings/harvest.
# Cells were fed every 3-4 days by removing media and unattached cells, centrifuging at 490× g for 5 minutes at 20° C. with acceleration of 9, deceleration of 9, and resuspending in fresh DMEM (Gibco) and 10% Heat Inactivated Fetal Bovine Serum (Atlanta Bio) and Penicillin/Streptomycin containing GM-CSF. Resuspended cells were seeded back onto 10 cm tissue culture plates and incubated at 37° C., 5% CO2. Differentiated macrophages were used for subsequent experiments.
# Primary human PMBC derived macrophages were seeded on day 0 at 3.0E4 cells per well in 96-well microplates (ThermoFisher) in Dulbecco's Modified Eagle Medium (DMEM) (Gibco) supplemented with penicillin-streptomycin (Hyclone) and 10% heat inactivated fetal bovine serum (HI-FBS) (Atlanta Bio) and incubated overnight at 37° C., 5% CO2. On day 1, cells were washed once with 150 uL per well DPBS (Gibco) and treated with 75 uL of: • a. […]
smiles,measurement,setting,value
"N=C(N)NCCC[C@H](N)C(=O)O [Arginine, L-Arginine]",IL-6 Measurements Mean,"Donor 1, Conc. 109 μM (baseline)",0
same,IL-6 Measurements Mean,"Donor 1, Conc. 1088 μM",−181.36
same,IL-6 Measurements Mean,"Donor 1, Conc. 2720 μM",−186.57
same,IL-6 Measurements Mean,"Donor 1, Conc. 5440 μM",357.4394
same,IL-6 Measurements Mean,"Donor 2, Conc. 109 μM (baseline)",2.37E−15
same,IL-6 Measurements Mean,"Donor 2, Conc. 1088 μM",−9.701
same,IL-6 Measurements Mean,"Donor 2, Conc. 2720 μM",−13.6102
same,IL-6 Measurements Mean,"Donor 2, Conc. 5440 μM",−12.4164
same,IL-6 Measurements Mean,"Donor 3, Conc. 109 μM (baseline)",0
same,IL-6 Measurements Mean,"Donor 3, Conc. 1088 μM",31.5786
same,IL-6 Measurements Mean,"Donor 3, Conc. 2720 μM",−7.503
same,IL-6 Measurements Mean,"Donor 3, Conc. 5440 μM",−6.81
same,LPS-induced IL-6 secretion,Donor 1,increased
"NC(=O)CC[C@H](N)C(=O)O [Glutamine, L-Glutamine]",IL-6 Measurements Mean,"Donor 1, Conc. 749 μM (baseline)",0
same,IL-6 Measurements Mean,"Donor 1, Conc. 3747 μM",291.5443
same,IL-6 Measurements Mean,"Donor 1, Conc. 11242 μM",397.1745
same,IL-6 Measurements Mean,"Donor 1, Conc. 22484 μM",440.1437
same,IL-6 Measurements Mean,"Donor 2, Conc. 749 μM (baseline)",2.37E−15
same,IL-6 Measurements Mean,"Donor 2, Conc. 3747 μM",22.52
same,IL-6 Measurements Mean,"Donor 2, Conc. 11242 μM",63.31
same,IL-6 Measurements Mean,"Donor 2, Conc. 22484 μM",34.39
same,IL-6 Measurements Mean,"Donor 3, Conc. 749 μM (baseline)",3.79E−14
same,IL-6 Measurements Mean,"Donor 3, Conc. 3747 μM",25.35
same,IL-6 Measurements Mean,"Donor 3, Conc. 11242 μM",98.4903
same,IL-6 Measurements Mean,"Donor 3, Conc. 22484 μM",108.5158
same,LPS-induced IL-6 secretion,Donor 1,increased
same,LPS-induced IL-6 secretion,Donor 2,increased
same,LPS-induced IL-6 secretion,Donor 3,significantly increased
"CC[C@H](C)[C@H](N)C(=O)O [Isoleucine, L-Isoleucine]",IL-6 Measurements Mean,"Donor 1, Conc. 66 μM (baseline)",0
same,IL-6 Measurements Mean,"Donor 1, Conc. 1328 μM",25.98
same,IL-6 Measurements Mean,"Donor 1, Conc. 3320 μM",−15.8843
same,IL-6 Measurements Mean,"Donor 1, Conc. 6639 μM",−218.332
same,IL-6 Measurements Mean,"Donor 2, Conc. 66 μM (baseline)",0
same,IL-6 Measurements Mean,"Donor 2, Conc. 1328 μM",−2.318
same,IL-6 Measurements Mean,"Donor 2, Conc. 3320 μM",2.305
same,IL-6 Measurements Mean,"Donor 2, Conc. 6639 μM",−1.774
same,IL-6 Measurements Mean,"Donor 3, Conc. 66 μM",−6.69
same,IL-6 Measurements Mean,"Donor 3, Conc. 1328 μM",−28.9897
same,IL-6 Measurements Mean,"Donor 3, Conc. 3320 μM",0
same,IL-6 Measurements Mean,"Donor 3, Conc. 6639 μM",−16.3663
"CC(C)C[C@H](N)C(=O)O [Leucine, L-Leucine]",IL-6 Measurements Mean,"Donor 1, Conc. 153 μM (baseline)",0
same,IL-6 Measurements Mean,"Donor 1, Conc. 3054 μM",244.9743
same,IL-6 Measurements Mean,"Donor 1, Conc. 7635 μM",−69.9873
same,IL-6 Measurements Mean,"Donor 1, Conc. 15270 μM",84.46
same,IL-6 Measurements Mean,"Donor 2, Conc. 153 μM (baseline)",7.11E−15
same,IL-6 Measurements Mean,"Donor 2, Conc. 3054 μM",29.61
same,IL-6 Measurements Mean,"Donor 2, Conc. 7635 μM",30.46
same,IL-6 Measurements Mean,"Donor 2, Conc. 15270 μM",47.6
same,LPS-induced IL-6 secretion,Donor 2,increased
"CC(=O)N[C@@H](CS)C(=O)O [NAC, N-acetylcysteine]",IL-6 Measurements Mean,"Donor 1, Conc. 0 X (baseline)",0
same,IL-6 Measurements Mean,"Donor 1, Conc. 5 X",308.1772
same,IL-6 Measurements Mean,"Donor 1, Conc. 10 X",−121.142
same,IL-6 Measurements Mean,"Donor 1, Conc. 20 X",−553.802
same,IL-6 Measurements Mean,"Donor 1, Conc. 40 X",−914.194
same,IL-6 Measurements Mean,"Donor 2, Conc. 0 X (baseline)",−2.4E−15
same,IL-6 Measurements Mean,"Donor 2, Conc. 5 X",−0.7946
same,IL-6 Measurements Mean,"Donor 2, Conc. 10 X",−9.751
same,IL-6 Measurements Mean,"Donor 2, Conc. 20 X",−24.9999
same,IL-6 Measurements Mean,"Donor 2, Conc. 40 X",−33.7585
same,IL-6 Measurements Mean,"Donor 3, Conc. 0 X (baseline)",−9.5E−15
same,IL-6 Measurements Mean,"Donor 3, Conc. 5 X",−70.3269
same,IL-6 Measurements Mean,"Donor 3, Conc. 10 X",−103.586
same,IL-6 Measurements Mean,"Donor 3, Conc. 20 X",−122.656
same,IL-6 Measurements Mean,"Donor 3, Conc. 40 X",−140.851
same,LPS-induced IL-6 secretion,Donor 1,significantly reduced
same,LPS-induced IL-6 secretion,Donor 2,significantly reduced
same,LPS-induced IL-6 secretion,Donor 3,significantly reduced
"CC(C)[C@H](N)C(=O)O [Valine, L-Valine]",IL-6 Measurements Mean,"Donor 1, Conc. 234 μM (baseline)",0
same,IL-6 Measurements Mean,"Donor 1, Conc. 4684 μM",−85.9843
same,IL-6 Measurements Mean,"Donor 1, Conc. 11710 μM",−97.25
same,IL-6 Measurements Mean,"Donor 1, Conc. 23420 μM",−106.268
same,IL-6 Measurements Mean,"Donor 2, Conc. 234 μM (baseline)",−4.7E−15
same,IL-6 Measurements Mean,"Donor 2, Conc. 4684 μM",−4.528
same,IL-6 Measurements Mean,"Donor 2, Conc. 11710 μM",−1.196
same,IL-6 Measurements Mean,"Donor 2, Conc. 23420 μM",4.396
same,IL-6 Measurements Mean,"Donor 3, Conc. 234 μM (baseline)",4.26E−14
same,IL-6 Measurements Mean,"Donor 3, Conc. 4684 μM",−30.0609
same,IL-6 Measurements Mean,"Donor 3, Conc. 11710 μM",−43.8022
same,IL-6 Measurements Mean,"Donor 3, Conc. 23420 μM",−29.2004
